Measurements reported in publication PMC10974084, “Combination of Betulinic Acid Fragments and Carbonic Anhydrase Inhibitors—A New Drug Targeting Approach” (Pharmaceutics, 2024).

Columns and labels:
[1] = test system: Hs578T spheroids; set-up: method as in PMID 36780832; conditions: Hs578T versus MDA-MB-231 spheroids; cited from earlier work
[2] = test system: A375 melanoma cells; assay: SRB cytotoxicity assay, A375; type: cell-based; conditions: Homo sapiens, A-375; SRB assay, 96 h incubation, mean ± SD; read-out: IC50 A375
Protocol: (§1) All of the compounds were dissolved in dimethyl sulfoxide (DMSO) to achieve a 20 mM stock solution. Cells were seeded in cell culture flasks 24 h before treatment. The treatment was performed for 24 h.
(§2) The cytotoxicity of the drugs was determined in 2D tumor models using sulforhodamine B (SRB) assays. Treatment started 24 h after seeding the tumor cells in 96-well plates as previously described.

[3] = test system: MCF-7 breast cancer cells; assay: SRB cytotoxicity assay, MCF-7; type: cell-based; conditions: Homo sapiens, MCF7; SRB assay, 96 h incubation, mean ± SD; read-out: IC50 MCF-7
Protocol: as §1, §2

[4] = test system: A2780 ovarian cancer cells; assay: SRB cytotoxicity assay, A2780; type: cell-based; conditions: Homo sapiens, A2780; SRB assay, 96 h incubation, mean ± SD; read-out: IC50 A2780
Protocol: as §1, §2

[5] = target: recombinant human carbonic anhydrase IX (Homo sapiens, UniProt Q16790); assay: hCA IX esterase assay with p-nitrophenyl acetate; conditions: p-nitrophenyl acetate substrate, competitive inhibition, pH 7.5, 20 °C
Protocol: In this measurement, the enzymatically catalyzed hydrolysis of p-nitrophenyl acetate to p-nitrophenol was investigated. […] This was followed by measurement of the v-S-characteristics with inhibitor. […] For each run, 2 experimental series (biological replicate) were prepared simultaneously and measured for 10 min at a measurement interval of 8 s, also as a two-fold determination (technical replicate). […] The resulting reaction velocities, calculated from a calibration curve with p-nitrophenole under the same conditions, were plotted against the substrate concentration. The kinetic evaluation for competitive inhibition was then performed with the program GraphPad Prism.

[6] = target: hypoxia-induced hCA IX (Homo sapiens, UniProt Q16790); assay: Cell-based hCA IX inhibition, Wilbur-Anderson method, hypoxic Hs578T cells; conditions: 20 µM, 3 h, vs untreated hypoxic cells

| Ki Values of hCA IX [5] | inhibition of hypoxia-induced hCA IX activity (relative WAU) [6] | SMILES | resistance of Hs578T spheroids [1] [fold] | IC50 [2] [µM] | IC50 [3] [µM] | IC50 [4] [µM] |
| --- | --- | --- | --- | --- | --- | --- |
| – | – | CC(=O)O[C@H]1C(=O)[C@@]2(C)[C@H]([C@H](OC(=O)c3ccccc3)[C@]3(O)C[C@H](OC(=O)[C@H](O)[C@@H](NC(=O)c4ccccc4)c4ccccc4)C(C)=C1C3(C)C)[C@]1(OC(C)=O)CO[C@@H]1C[C@@H]2O [paclitaxel] | 20 | – | – | – |
| – | – | COc1cccc2c1C(=O)c1c(O)c3c(c(O)c1C2=O)C[C@@](O)(C(=O)CO)C[C@@H]3O[C@H]1C[C@H](N)[C@H](O)[C@H](C)O1 [doxorubicin] | 60 | – | – | – |
| n.i. | no potential to inhibit hCA IX activity | C=C(C)[C@@H]1CC[C@]2(C(=O)O)CC[C@]3(C)[C@H](CC[C@@H]4[C@@]5(C)CC[C@H](O)C(C)(C)[C@@H]5CC[C@]43C)[C@@H]12 [BA, betulinic acid] | – | 13.1 ± 0.9 | 13 ± 1 | 12.5 ± 1.8 |
